Positions count from the first letter of the chain named.
Experiments:
TRPV3-L508V = molecular target: T1, TRPV3-L508V (Homo sapiens, UniProt Q8NET8, L508V); assay: Whole-cell and single-channel recordings of the TRPV3-L508V mutant; assay type: cell-based; details: carvacrol 0.3-3 mM
T1 sequence (Q8NET8 1-790 L508V): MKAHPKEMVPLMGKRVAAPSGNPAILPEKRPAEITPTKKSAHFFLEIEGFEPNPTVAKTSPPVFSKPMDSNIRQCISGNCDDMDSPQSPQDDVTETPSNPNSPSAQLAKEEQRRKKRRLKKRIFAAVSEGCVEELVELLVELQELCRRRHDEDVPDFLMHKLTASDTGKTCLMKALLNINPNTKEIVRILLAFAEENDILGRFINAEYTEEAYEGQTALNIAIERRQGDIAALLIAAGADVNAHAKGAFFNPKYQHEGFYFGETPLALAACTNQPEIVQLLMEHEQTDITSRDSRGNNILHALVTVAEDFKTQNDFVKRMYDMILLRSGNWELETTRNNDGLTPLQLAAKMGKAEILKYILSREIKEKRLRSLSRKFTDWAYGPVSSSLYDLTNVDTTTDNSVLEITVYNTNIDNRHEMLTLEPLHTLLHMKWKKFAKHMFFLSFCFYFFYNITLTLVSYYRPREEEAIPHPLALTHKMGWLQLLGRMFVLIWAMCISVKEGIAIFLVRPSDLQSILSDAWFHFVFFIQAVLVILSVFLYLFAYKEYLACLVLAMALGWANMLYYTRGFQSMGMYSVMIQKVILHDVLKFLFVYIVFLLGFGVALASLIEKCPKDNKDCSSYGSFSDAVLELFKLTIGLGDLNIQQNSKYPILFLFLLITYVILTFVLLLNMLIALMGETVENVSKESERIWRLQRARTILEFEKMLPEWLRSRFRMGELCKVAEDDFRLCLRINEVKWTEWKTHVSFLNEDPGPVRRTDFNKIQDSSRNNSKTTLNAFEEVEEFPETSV

TRPV3 = details: read-out: EC50, activation of TRPV3; ref [23], [30]; cited from earlier work
human TRPV3 = molecular target: T2, human TRPV3 (Homo sapiens, UniProt Q8NET8); assay: Inside-out single channel recordings of TRPV3; assay type: biochemical
T2 sequence (Q8NET8 1-790): T1 sequence (Q8NET8 1-790 L508V) with V508L

TRPV3-L508F = molecular target: T3, TRPV3-L508F (Homo sapiens, UniProt Q8NET8, L508F); assay: Whole-cell and single-channel recordings of the TRPV3-L508F mutant; assay type: cell-based; details: carvacrol 0.3-3.0 mM or 50 μM 2-APB
T3 sequence (Q8NET8 1-790 L508F): T1 sequence (Q8NET8 1-790 L508V) with V508F

[1] = +80 mV, carvacrol 300 μM or 2-APB 50 μM alone

SMILES: Cc1ccc(C(C)C)cc1O [carvacrol, 5-Isopropyl-2-methylphenol]
- activation of TRPV3 L508V mutant channel (TRPV3-L508V): retain the channel activation
- EC50 (TRPV3): 497 ± 70 µM
- single-channel open frequency (Freq) (human TRPV3; [1]): 59.21 ± 11.32 Hz
- single-channel open probability (Po) (human TRPV3; [1]): 0.72 ± 0.05
- unitary conductance of TRPV3 single channels (human TRPV3; inside-out patches, -80 mV to +80 mV, carvacrol 300 μM, 2-APB 50 μM, n = 4): 182.0 ± 6.4 pS
- activation of TRPV3 L508F mutant channel (TRPV3-L508F): ablated TRPV3 activation
